Measurements taken from ChEMBL document CHEMBL3045278, “Anticonvulsant and sedative-hypnotic activity of some novel 3-[5-(4-substituted) phenyl-1,3,4-oxadiazole-2yl]-2-styrylquinazoline-4(3H)-ones” (Med Chem Res, 2010).
The source made the active and inactive calls. No cut-off for these calls is given here.

How the values were obtained:
Rattus norvegicus [1] = assay: Antidepressant activity in Rattus norvegicus Wistar (rat) assessed as immobility time at 100 mg/kg, ip after 60 min by forced swim pool test relative to control; settings: route intraperitoneal
Mus musculus [2] = assay: Anticonvulsant activity in Mus musculus albino (mouse) assessed as protection against maximal electroshock-induced seizures at 300 mg/kg, ip measured at 4 hr; type: functional, organism-based; design: dose 300 mg/kg
Mus musculus [3] = assay: Neurotoxicity in Mus musculus albino (mouse) assessed as minimal motor impairment at 300 mg/kg, ip measured at 4 hr; type: toxicity, organism-based; design: dose 300 mg/kg, route intraperitoneal; settings: in vivo
Mus musculus [4] = assay: Behavioral activity in Mus musculus albino (mouse) assessed as inhibition of locomotion at 100 mg/kg, ip after 1 hr by actophotometric analysis relative to control; type: functional; settings: route intraperitoneal
Mus musculus [5] = assay: Neurotoxicity in Mus musculus albino (mouse) assessed as minimal motor impairment at 300 mg/kg, ip measured at 0.5 hr; type: toxicity, organism-based; design: dose 300 mg/kg, route intraperitoneal; settings: in vivo
Mus musculus [6] = assay: Anticonvulsant activity in Mus musculus albino (mouse) assessed as protection against subcutaneous pentylenetetrazol-induced seizures at 300 mg/kg, ip measured at 0.5 hr; type: functional, organism-based; design: dose 300 mg/kg
Mus musculus [7] = species on record: Mus musculus; assay: Sedative-hypnotic activity in Mus musculus albino (mouse) assessed as increase in phenobarbitone-induced sleeping time; type: functional, organism-based
Mus musculus [8] = assay: Anticonvulsant activity in ip dosed Mus musculus albino (mouse) assessed as protection against maximal electroshock-induced seizures measured at 0.5 hr; type: functional; settings: read-out: MED
Mus musculus [9] = assay: Anticonvulsant activity in Mus musculus albino (mouse) assessed as protection against subcutaneous pentylenetetrazol-induced seizures at 300 mg/kg, ip measured at 4 hr; type: functional, organism-based; design: dose 300 mg/kg
Mus musculus [10] = assay: Anticonvulsant activity in Mus musculus albino (mouse) assessed as protection against maximal electroshock-induced seizures at 300 mg/kg, ip measured at 0.5 hr; type: functional, organism-based; design: dose 300 mg/kg
Mus musculus [11] = assay: Anticonvulsant activity in ip dosed Mus musculus albino (mouse) assessed as protection against maximal electroshock-induced seizures measured at 4 hr; type: functional; settings: read-out: MED
Mus musculus [12] = assay: Neurotoxicity in ip dosed Mus musculus albino (mouse) assessed as minimal motor impairment measured at 0.5 hr; type: toxicity, organism-based; settings: in vivo
Mus musculus [13] = assay: Behavioral activity in Mus musculus albino (mouse) assessed as inhibition of locomotion at 25 mg/kg, ip after 1 hr by actophotometric analysis relative to control; type: functional; settings: route intraperitoneal
Mus musculus [14] = assay: Neurotoxicity in ip dosed Mus musculus albino (mouse) assessed as minimal motor impairment measured at 4 hr; type: toxicity, organism-based; settings: in vivo
Mus musculus [15] = assay: Anticonvulsant activity in ip dosed Mus musculus albino (mouse) assessed as protection against subcutaneous pentylenetetrazol-induced seizures measured at 4 hr; type: functional; settings: read-out: MED
Mus musculus [16] = assay: Anticonvulsant activity in ip dosed Mus musculus albino (mouse) assessed as protection against subcutaneous pentylenetetrazol-induced seizures measured at 0.5 hr; type: functional; settings: read-out: MED
Rattus norvegicus [17] = assay: Antidepressant activity in Rattus norvegicus Wistar (rat) assessed as immobility time at 25 mg/kg, ip after 60 min by forced swim pool test relative to control; settings: route intraperitoneal

| SMILES | Time (Rattus norvegicus [1]) | Activity (Mus musculus [2]) | Activity (Mus musculus [3]) | inhibition in vivo at 100 mg/kg (Mus musculus [4]) | Activity (Mus musculus [5]) | Activity (Mus musculus [6]) | Activity (Mus musculus [7]) | minimal effective dose (Mus musculus [8]) | Activity (Mus musculus [9]) | Activity (Mus musculus [10]) | minimal effective dose (Mus musculus [11]) | MTC (Mus musculus [12]) | inhibition in vivo at 25 mg/kg (Mus musculus [13]) | MTC (Mus musculus [14]) | minimal effective dose (Mus musculus [15]) | minimal effective dose (Mus musculus [16]) | Time (Rattus norvegicus [17]) |
| --- | --- | --- | --- | --- | --- | --- | --- | --- | --- | --- | --- | --- | --- | --- | --- | --- | --- |
| Cc1ccc(/C=C/c2nc3ccccc3c(=O)n2-c2nnc(-c3ccc(Cl)cc3)o2)cc1 | 135.18 s | inactive | Non-toxic | 45% | Non-toxic | inactive | inactive | 300 mg/kg | inactive |  |  |  |  |  |  |  |  |
| COc1ccc(-c2nnc(-n3c(/C=C/c4ccc(Cl)cc4)nc4ccccc4c3=O)o2)cc1 | 184.36 s | inactive | Non-toxic | 50% | Non-toxic | inactive | inactive |  | inactive | inactive |  |  |  |  |  |  |  |
| CN(C)c1ccc(-c2nnc(-n3c(/C=C/c4ccccc4)nc4ccccc4c3=O)o2)cc1 | 50.23 s | inactive | Non-toxic | 30% | Non-toxic | inactive | inactive |  | inactive | inactive |  |  |  |  |  |  |  |
| O=C1NC(=O)C(c2ccccc2)(c2ccccc2)N1 [PHENYTOIN] |  |  |  |  |  | inactive |  | 30 mg/kg | inactive |  | 30 mg/kg | 100 mg/kg | 70% | 100 mg/kg |  |  |  |
| Cc1ccc(-c2nnc(-n3c(/C=C/c4ccccc4)nc4ccccc4c3=O)o2)cc1 | 152.39 s | inactive | Non-toxic | 48% | Non-toxic | inactive | inactive |  | inactive | inactive |  |  |  |  |  |  |  |
| O=c1c2ccccc2nc(/C=C/c2ccccc2)n1-c1nnc(-c2ccccc2)o1 | 113.14 s | inactive | Non-toxic | 48% | Non-toxic | inactive | inactive |  | inactive | inactive |  |  |  |  |  |  |  |
| CN(C)c1ccc(-c2nnc(-n3c(/C=C/c4ccc(Cl)cc4)nc4ccccc4c3=O)o2)cc1 | 121.21 s |  |  | 49% |  |  | inactive | 100 mg/kg |  |  | 100 mg/kg | 100 mg/kg |  | 100 mg/kg | 300 mg/kg | 300 mg/kg |  |
| O=c1c2ccccc2nc(/C=C/c2ccc(Cl)cc2)n1-c1nnc(-c2ccc(Cl)cc2)o1 | 100.12 s | inactive | Non-toxic | 53% |  | inactive | inactive |  | inactive | inactive |  | 100 mg/kg |  |  |  |  |  |
| Cc1ccc(/C=C/c2nc3ccccc3c(=O)n2-c2nnc(-c3ccccc3)o2)cc1 | 160.05 s | inactive | Non-toxic | 47% | Non-toxic | inactive | inactive |  | inactive | inactive |  |  |  |  |  |  |  |
| O=c1c2ccccc2nc(/C=C/c2ccc(Cl)cc2)n1-c1nnc(-c2ccccc2)o1 | 151.11 s | inactive | Non-toxic | 51% | Non-toxic | inactive | inactive |  | inactive | inactive |  |  |  |  |  |  |  |
| CCCC(CCC)C(=O)[O-].[Na+] [VALPROATE SODIUM] |  | inactive | Non-toxic |  | Non-toxic |  |  |  | inactive | inactive |  |  |  |  |  | 300 mg/kg |  |
| Cc1ccc(-c2nnc(-n3c(/C=C/c4ccc(Cl)cc4)nc4ccccc4c3=O)o2)cc1 | 150.76 s | inactive | Non-toxic | 56% | Non-toxic | inactive | inactive |  | inactive | inactive |  |  |  |  |  |  |  |
| Cc1ccc(/C=C/c2nc3ccccc3c(=O)n2-c2nnc(-c3ccc(C)cc3)o2)cc1 | 163.21 s | inactive | Non-toxic | 40% | Non-toxic | inactive | inactive |  | inactive | inactive |  |  |  |  |  |  |  |
| O=c1c2ccccc2nc(/C=C/c2ccccc2)n1-c1nnc(-c2ccc(Cl)cc2)o1 | 217.93 s | inactive | Non-toxic | 38% | Non-toxic | inactive | inactive |  | inactive | inactive |  |  |  |  |  |  |  |
| NC(=O)N1c2ccccc2C=Cc2ccccc21 [CARBAMAZEPINE] |  |  |  |  |  |  |  | 30 mg/kg |  |  | 100 mg/kg | 100 mg/kg |  | 300 mg/kg | 300 mg/kg | 100 mg/kg | 240.3 s |
| COc1ccc(-c2nnc(-n3c(/C=C/c4ccc(C)cc4)nc4ccccc4c3=O)o2)cc1 | 182.82 s | inactive | Non-toxic | 42% | Non-toxic | inactive | inactive |  | inactive | inactive |  |  |  |  |  |  |  |
| Cc1ccc(/C=C/c2nc3ccccc3c(=O)n2-c2nnc(-c3ccc(N(C)C)cc3)o2)cc1 | 125.42 s | inactive | Non-toxic | 37% |  | inactive | inactive |  | inactive | inactive |  | 100 mg/kg |  |  |  |  |  |
| COc1ccc(-c2nnc(-n3c(/C=C/c4ccccc4)nc4ccccc4c3=O)o2)cc1 | 163.75 s | inactive | Non-toxic | 41% |  | inactive | inactive |  | inactive | inactive |  | 300 mg/kg |  |  |  |  |  |
